Measured values published in ChEMBL document CHEMBL1201862, “PubChem BioAssay data set” (2004).
Calls of active or inactive are those of the source.

Columns and labels:
[1] = viability loss in Vero cells – cytotoxicity control for Vif-APOBEC3G degradation inhibitor project, dose response (AID 1117358); format: functional; conditions: Vero
Kallikrein-7 = Kallikrein-7 (Homo sapiens, UniProt P49862); assay: Fluorescence Intensity-based biochemical primary high throughput dose response assay to identify activators of kallikrein-7 (K7) zymogen.
[2] = molecular target: 1-phosphatidylinositol 4,5-bisphosphate phosphodiesterase beta-3 (Homo sapiens, UniProt Q01970); assay: Fluorescence-based biochemical high throughput dose response assay to identify inhibitors of phospholipase C isozymes (PLC-B3).
[3] = molecular target: 1-phosphatidylinositol 4,5-bisphosphate phosphodiesterase gamma-1 (Homo sapiens, UniProt P19174); assay: Counterscreen for inhibitors of phospholipase C isozymes (PLC-B3): Fluorescence-based biochemical high throughput dose response assay to identify inhibitors of phospholipase C isozymes (PLC-gamma1).
[4] = viability loss in human Jurkat cells – cell-based, luminescence, cytotoxicity control for P. falciparum gametocyte viability project, dose response (AID 1117277); format: functional;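 also: potency reflects loss of cellular ATP meaning fewer viable cells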
[5] = viability inhibitors of stage V gametocytes – luminescence, dose response (AID 1117278); format: functional, cell-based;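 also: gametocytes exposed to compound for 24 hours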
[6] = molecular target: T1, Ubiquitin-conjugating enzyme E2 N (Homo sapiens, UniProt P61088); format: functional;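 also: Dose-response confirmation in a TR-FRET assay detecting UBC13-driven polyubiquitin chain formation, inhibition measured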
T1 sequence (P61088 whole entry): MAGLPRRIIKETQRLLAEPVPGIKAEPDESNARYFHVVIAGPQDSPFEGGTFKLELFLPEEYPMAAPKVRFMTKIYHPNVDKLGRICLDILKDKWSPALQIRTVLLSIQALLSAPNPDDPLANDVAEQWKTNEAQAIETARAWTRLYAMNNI

[7] = loss of viability in HepG2 cells – cell-based, CellTiter-Glo, cherry-picked, cytotoxicity control for Shn3 inhibitor project, dose response (AID 624134); format: functional
[8] = reduction of Shn3 3'UTR-driven luciferase in osteoblasts – cell-based, Clone20 osteoblasts, firefly luciferase, cherry-picked, dose response (AID 624132); format: functional;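 also: firefly luciferase luminescence from reporter carrying the Shn3 3'UTR in osteoblasts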
[9] = viability loss in CEM21 cells – cell-based, CellTiter-Glo luminescence, cherry-picked, cytotoxicity control for viral fusion inhibitor project, dose response (AID 652042); format: functional;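 also: potency for signal decrease meaning cytotoxicity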
[10] = HIV-1 AD8 envelope cell-cell fusion blockers – cherry-pick, dose response (AID 652062); format: functional, cell-based;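 also: luciferase signal from cell-cell fusion driven by HIV-1 clade B AD8 Env; potency is for inhibitors of fusion seen as a drop in luminescence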
[11] = non-specific 3'UTR reporter inhibition in Clone20-Shn3RL – cell-based, Renilla luciferase, cherry-picked, counter-screen for Shn3 inhibitor project, dose response (AID 624133); format: functional
[12] = molecular target: T2, DNA repair protein RAD52 homolog (Homo sapiens, UniProt P43351); format: functional, biochemical
T2 sequence (P43351 whole entry): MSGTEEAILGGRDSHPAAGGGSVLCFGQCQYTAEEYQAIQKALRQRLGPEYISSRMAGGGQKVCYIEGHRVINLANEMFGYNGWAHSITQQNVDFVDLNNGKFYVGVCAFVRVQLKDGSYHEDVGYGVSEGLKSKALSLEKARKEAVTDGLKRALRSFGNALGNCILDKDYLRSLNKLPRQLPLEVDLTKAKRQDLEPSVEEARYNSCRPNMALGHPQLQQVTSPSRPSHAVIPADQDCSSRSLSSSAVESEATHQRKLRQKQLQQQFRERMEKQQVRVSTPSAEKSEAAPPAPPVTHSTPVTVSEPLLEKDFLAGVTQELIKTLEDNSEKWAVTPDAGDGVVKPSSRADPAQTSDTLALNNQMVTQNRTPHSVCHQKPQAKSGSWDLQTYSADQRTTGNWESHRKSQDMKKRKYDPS

[13] = Trypanosoma cruzi growth suppression in host cells – NIH3T3 host cells, beta-gal luminescence, confirmation (AID 2044); format: functional, cell-based;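 also: intracellular parasites grown in NIH/3T3 mouse fibroblasts as host cells; luminescent beta-galactosidase reporter signal from transgenic T. cruzi replicating inside host cells; inhibitors lower the luminescence signal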
cells [14] = format: functional, cell-based
cells [15] = format: functional, cell-based; remark: listed apart in the source
[16] = molecular target: DNA (cytosine-5)-methyltransferase 1 (Homo sapiens, UniProt P26358); assay: inhibition of DNA methylation by DNMT1 – biochemical, fluorescent molecular beacon, confirmation (AID 602386); format: functional
[17] = NIH3T3 cell viability loss – ATP luminescence, mouse fibroblasts, counter-screen, dose response (AID 2010); format: functional, cell-based;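 also: cells exposed to compound for about 90 hours before reading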
[18] = molecular target: E3 ubiquitin-protein ligase UHRF1 (Homo sapiens, UniProt Q96T88); assay: Counterscreen for inhibitors of 5-meCpG-binding domain protein 2 (MBD2): TRFRET-based biochemical high throughput dose response assay to identify inhibitors of binding of ubiquitin-like with PHD and ring finger domains 1 (UHRF1) to methylated oligonucleotide.
[19] = Counterscreen for activators of the function of SWI/SNF related, matrix associated, actin dependent regulator of chromatin, subfamily a, member 2 (SMARCA2, BRM): Luminescence-based cell-based high throughput dose response assay to identify non-selective compounds using the VP16 reporter assay.; format: functional
INS1 = assay: INS-1E survival protection against cytokine death – cell-based, luminescence, retest, dose response (AID 449756); format: functional; conditions: Rattus norvegicus;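 also: cell death triggered by IL-1 beta plus TNF-alpha plus IFN-gamma mixture; protective hits raise ATP signal compared with cytokine alone wells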
[20] = molecular target: SWI/SNF-related matrix-associated actin-dependent regulator of chromatin subfamily A member 2 (Homo sapiens, UniProt P51531); assay: Luminescence-based cell-based high throughput dose response assay to identify activators of the function of SWI/SNF related, matrix associated, actin dependent regulator of chromatin, subfamily a, member 2 (SMARCA2, BRM).; format: functional
cells [21] = format: functional, cell-based; conditions: HEK-CNG
Galanin receptor type 3 = Galanin receptor type 3 (Homo sapiens, UniProt O60755); assay: Fluorescence-based cell-based primary high throughput dose response assay to identify antagonists of the Galanin Receptor 3 (GalR3).; format: functional
[22] = molecular target: T3, COUP transcription factor 2 (Homo sapiens, UniProt P24468); assay: Luminescence-based cell-based high throughput dose response assay to identify inhibitors of COUP-TFII (NR2F2).; format: functional;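 also: HEK293 cells transiently cotransfected with COUP-TFII expression vector and reporter; luciferase reporter luminescence driven by COUP-TFII from the pX2-168 reporter plasmid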
T3 sequence (P24468 whole entry): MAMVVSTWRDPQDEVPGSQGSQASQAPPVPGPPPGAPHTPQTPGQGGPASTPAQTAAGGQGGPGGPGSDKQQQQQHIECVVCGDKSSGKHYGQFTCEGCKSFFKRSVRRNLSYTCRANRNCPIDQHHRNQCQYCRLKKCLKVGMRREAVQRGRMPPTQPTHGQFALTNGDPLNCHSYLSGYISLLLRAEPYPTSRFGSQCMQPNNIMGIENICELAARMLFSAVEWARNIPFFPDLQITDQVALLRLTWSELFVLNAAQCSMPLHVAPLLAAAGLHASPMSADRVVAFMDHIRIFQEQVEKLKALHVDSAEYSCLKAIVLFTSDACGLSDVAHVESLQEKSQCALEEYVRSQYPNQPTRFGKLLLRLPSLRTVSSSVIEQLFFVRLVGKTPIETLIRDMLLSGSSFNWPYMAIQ

[23] = molecular target: RNA-editing ligase 1, mitochondrial (Trypanosoma brucei brucei, UniProt P86926); assay: inhibition of trypanosome RNA editing ligase – biochemical, fluorescence, Trypanosoma brucei, dose response (AID 1117295); format: functional
[24] = potency of ADAM10 substrate cleavage blockers – biochemical, QFRET, dose response (AID 743254);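 also: ADAM10 enzyme with the DM2 quenched FRET peptide as substrate; EDANS fluorescence gain as the protease cuts the substrate; inhibitor potency against ADAM10 proteolytic activity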
[25] = molecular target: Disintegrin and metalloproteinase domain-containing protein 17 (Homo sapiens, UniProt P78536); assay: inhibition of ADAM17 substrate cleavage – biochemical, quenched FRET substrate, counter-screen for ADAM10 exosite inhibitor project, dose response (AID 743253)
Sequence of Disintegrin and metalloproteinase domain-containing protein 17 (P78536 whole entry, the tested form may be a part): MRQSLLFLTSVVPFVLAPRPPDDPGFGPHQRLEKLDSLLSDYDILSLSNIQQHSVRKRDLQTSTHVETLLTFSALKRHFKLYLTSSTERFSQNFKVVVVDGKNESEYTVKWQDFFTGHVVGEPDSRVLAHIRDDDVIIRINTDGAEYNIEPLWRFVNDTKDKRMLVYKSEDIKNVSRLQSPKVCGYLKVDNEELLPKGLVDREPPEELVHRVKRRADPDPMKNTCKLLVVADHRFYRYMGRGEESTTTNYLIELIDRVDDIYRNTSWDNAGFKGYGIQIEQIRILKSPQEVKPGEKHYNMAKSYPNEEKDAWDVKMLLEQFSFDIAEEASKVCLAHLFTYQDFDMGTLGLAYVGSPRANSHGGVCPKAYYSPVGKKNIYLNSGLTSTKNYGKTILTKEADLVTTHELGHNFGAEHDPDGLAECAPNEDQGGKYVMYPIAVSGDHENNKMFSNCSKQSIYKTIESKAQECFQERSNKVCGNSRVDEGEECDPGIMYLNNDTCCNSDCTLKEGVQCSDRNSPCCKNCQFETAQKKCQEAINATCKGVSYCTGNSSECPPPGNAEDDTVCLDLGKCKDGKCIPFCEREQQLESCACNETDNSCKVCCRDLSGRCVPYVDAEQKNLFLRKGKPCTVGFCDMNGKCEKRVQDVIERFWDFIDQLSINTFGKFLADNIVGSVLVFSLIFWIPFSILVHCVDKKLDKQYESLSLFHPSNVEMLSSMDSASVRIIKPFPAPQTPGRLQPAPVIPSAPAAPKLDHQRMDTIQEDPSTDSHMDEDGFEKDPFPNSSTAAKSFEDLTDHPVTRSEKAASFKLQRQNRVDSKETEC

Sequence of RNA-editing ligase 1, mitochondrial (P86926 whole entry): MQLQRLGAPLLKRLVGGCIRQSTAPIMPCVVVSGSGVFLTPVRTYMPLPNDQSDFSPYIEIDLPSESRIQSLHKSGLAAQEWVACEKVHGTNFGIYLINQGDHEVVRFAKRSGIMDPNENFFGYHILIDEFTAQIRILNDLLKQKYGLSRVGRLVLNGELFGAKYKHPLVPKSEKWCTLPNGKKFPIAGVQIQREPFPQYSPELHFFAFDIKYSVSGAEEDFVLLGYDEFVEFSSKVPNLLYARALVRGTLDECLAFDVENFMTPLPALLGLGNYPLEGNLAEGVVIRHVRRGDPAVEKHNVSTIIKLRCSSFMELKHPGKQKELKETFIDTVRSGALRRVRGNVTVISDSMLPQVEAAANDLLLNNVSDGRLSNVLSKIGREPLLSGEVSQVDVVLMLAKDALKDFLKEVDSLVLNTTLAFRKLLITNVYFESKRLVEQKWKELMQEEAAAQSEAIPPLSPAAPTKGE
Sequence of Kallikrein-7 (P49862 whole entry): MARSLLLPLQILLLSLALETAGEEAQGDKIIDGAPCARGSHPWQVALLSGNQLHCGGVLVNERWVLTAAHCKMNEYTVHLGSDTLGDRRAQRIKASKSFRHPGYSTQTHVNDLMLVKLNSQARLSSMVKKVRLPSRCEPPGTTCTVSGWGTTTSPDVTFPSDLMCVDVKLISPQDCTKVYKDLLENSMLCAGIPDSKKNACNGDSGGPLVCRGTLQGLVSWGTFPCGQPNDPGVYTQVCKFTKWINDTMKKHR
Sequence of Galanin receptor type 3 (O60755 whole entry): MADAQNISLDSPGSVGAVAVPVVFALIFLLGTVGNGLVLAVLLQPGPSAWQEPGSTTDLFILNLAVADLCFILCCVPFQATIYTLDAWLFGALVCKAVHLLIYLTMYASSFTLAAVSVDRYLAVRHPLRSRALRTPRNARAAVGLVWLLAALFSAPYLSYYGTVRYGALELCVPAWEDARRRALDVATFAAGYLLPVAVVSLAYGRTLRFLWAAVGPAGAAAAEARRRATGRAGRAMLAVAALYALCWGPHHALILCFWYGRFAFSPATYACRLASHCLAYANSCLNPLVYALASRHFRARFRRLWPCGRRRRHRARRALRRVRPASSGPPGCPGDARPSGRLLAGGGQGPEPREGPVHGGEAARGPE
Sequence of 1-phosphatidylinositol 4,5-bisphosphate phosphodiesterase beta-3 (Q01970 whole entry): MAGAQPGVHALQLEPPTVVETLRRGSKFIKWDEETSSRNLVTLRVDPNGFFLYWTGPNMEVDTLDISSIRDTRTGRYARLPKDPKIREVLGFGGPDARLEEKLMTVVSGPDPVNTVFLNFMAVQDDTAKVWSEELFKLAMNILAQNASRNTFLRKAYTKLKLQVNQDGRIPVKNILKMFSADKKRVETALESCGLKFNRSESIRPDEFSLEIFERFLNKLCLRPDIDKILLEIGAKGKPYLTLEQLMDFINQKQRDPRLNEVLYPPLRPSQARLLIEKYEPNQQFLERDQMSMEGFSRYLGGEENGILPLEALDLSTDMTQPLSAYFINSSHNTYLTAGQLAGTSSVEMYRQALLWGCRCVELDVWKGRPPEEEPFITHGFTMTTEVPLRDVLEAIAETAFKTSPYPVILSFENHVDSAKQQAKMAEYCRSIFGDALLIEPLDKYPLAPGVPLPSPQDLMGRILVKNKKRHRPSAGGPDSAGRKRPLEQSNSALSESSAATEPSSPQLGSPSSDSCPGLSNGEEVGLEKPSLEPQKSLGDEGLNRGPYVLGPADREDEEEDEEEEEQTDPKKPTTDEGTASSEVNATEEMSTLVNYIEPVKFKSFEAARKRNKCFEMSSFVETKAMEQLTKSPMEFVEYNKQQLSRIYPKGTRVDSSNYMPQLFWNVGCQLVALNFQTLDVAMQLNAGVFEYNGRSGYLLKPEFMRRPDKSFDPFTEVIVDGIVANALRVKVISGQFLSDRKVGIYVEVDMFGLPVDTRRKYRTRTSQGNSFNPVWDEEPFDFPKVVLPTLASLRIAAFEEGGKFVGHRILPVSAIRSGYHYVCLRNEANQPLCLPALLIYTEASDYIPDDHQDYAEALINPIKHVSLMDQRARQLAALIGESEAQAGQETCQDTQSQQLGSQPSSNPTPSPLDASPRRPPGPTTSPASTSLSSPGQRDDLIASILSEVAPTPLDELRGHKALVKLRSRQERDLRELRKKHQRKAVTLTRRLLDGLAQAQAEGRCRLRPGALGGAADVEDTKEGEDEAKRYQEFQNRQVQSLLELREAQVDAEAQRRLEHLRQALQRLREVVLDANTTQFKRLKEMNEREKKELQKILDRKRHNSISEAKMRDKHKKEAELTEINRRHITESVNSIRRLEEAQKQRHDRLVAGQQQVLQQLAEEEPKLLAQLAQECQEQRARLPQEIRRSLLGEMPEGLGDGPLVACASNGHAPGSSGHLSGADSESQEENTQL
Sequence of 1-phosphatidylinositol 4,5-bisphosphate phosphodiesterase gamma-1 (P19174 whole entry): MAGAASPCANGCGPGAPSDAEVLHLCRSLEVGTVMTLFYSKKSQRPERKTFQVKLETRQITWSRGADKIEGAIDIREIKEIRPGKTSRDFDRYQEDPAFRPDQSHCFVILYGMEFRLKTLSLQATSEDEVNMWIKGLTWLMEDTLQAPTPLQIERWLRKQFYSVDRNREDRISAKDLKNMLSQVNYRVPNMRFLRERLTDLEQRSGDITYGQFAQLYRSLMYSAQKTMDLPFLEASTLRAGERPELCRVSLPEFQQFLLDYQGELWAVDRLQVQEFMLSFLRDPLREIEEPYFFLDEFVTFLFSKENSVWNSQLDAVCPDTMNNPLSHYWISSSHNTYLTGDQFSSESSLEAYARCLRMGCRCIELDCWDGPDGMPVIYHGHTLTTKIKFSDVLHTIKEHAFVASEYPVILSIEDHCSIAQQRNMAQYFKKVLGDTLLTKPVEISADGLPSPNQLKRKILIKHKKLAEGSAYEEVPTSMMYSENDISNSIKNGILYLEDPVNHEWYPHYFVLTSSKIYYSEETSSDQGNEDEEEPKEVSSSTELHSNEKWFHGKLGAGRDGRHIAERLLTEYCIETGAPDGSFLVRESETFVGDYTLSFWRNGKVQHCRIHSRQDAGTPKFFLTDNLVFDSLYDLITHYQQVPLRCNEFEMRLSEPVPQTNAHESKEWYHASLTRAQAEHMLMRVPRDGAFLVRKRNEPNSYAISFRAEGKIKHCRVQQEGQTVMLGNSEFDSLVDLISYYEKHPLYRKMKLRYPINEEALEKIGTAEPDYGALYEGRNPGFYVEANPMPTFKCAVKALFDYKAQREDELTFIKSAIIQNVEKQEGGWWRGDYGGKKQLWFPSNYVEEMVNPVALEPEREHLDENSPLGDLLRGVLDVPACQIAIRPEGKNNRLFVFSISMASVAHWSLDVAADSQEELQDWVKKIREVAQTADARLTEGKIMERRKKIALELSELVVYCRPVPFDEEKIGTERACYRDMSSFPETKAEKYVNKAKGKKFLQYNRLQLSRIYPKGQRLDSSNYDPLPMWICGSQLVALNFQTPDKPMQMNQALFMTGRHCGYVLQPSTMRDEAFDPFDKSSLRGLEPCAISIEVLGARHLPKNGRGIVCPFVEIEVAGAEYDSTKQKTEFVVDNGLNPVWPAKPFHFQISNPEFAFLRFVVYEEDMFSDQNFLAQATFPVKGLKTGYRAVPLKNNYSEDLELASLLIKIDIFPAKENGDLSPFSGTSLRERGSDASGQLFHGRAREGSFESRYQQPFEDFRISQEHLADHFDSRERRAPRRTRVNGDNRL

Cc1ccc(C)c(S(=O)(=O)Nc2ccc3scnc3c2)c1
CC50 [1]: > 40 µM (active)

O=C1c2ccccc2NC(c2ccccc2)N1Cc1ccco1 (stereo unspecified)
EC50 (Kallikrein-7): > 69.5 µM (inactive)

COc1cc(C(=O)Nc2ccc3c(c2)C(=O)N(CCC(=O)O)C3=O)cc(OC)c1OC
IC50 [2]: > 122 µM (inactive) | IC50 [3]: > 122 µM (inactive)

Cc1cc(C)c2nc(-c3ccccn3)cc(C(=O)n3cccn3)c2c1
IC50 [4]: > 83.2 µM (inactive) | IC50 [5]: > 109 µM (inactive) | IC50 [6]: > 20 µM (inactive)

O=C(Nc1ccccn1)C1CCN(S(=O)(=O)c2cccc3nonc23)CC1
IC50 [4]: > 83.3 µM (inactive) | IC50 [5]: > 109 µM (inactive)

Nc1nonc1C(=O)NCCNCc1cc(Br)ccc1OCc1ccccc1F
AC50 [7]: 40.4 µM (active) | AC50 [8]: 2.5 µM (active) | AC50 [9]: 40.5 µM (active) | AC50 [10]: 14.9 µM (active) | AC50 [11]: 0.91 µM (active)

CCN(CC)CCC(=O)Nc1cccc2c1C(=O)c1ccccc1C2=O
AC50 [12]: 0.801 µM (active) | EC50 [13]: 0.61 µM (active) | EC50 (cells [14]): > 350 µM (not active) | EC50 (cells [15]): 59.3 µM (active) | IC50 [16]: 6.86 µM (active) | EC50 [17]: 13.4 µM (active) | IC50 [18]: > 43.8 µM (inactive) | EC50 [19]: > 91.3 µM (inactive) | AC50 (INS1): 4.28 µM (active) | EC50 [20]: 9.64 µM (active)

Cc1ccccc1Cn1c(C)nc2ccccc21
EC50 (cells [21]): > 29.9 µM (inactive) | IC50 (Galanin receptor type 3): 0.331 µM (active) | IC50 [22]: 13.2 µM (inactive)

CC[C@@H](C)[C@@H]1CN([C@@H](C)CN2CCC[C@H]2CN2C(N)=NC[C@H]2C(C)C)C(=N)N1CCc1ccc(Cl)c(Cl)c1
IC50 [23]: > 96.6 µM (inactive) | IC50 [6]: > 20 µM (inactive)

CCCCCCNC(=O)O[C@H]1Cn2c(=O)n(CCCCCC)c(=O)n2[C@@H]2CN(S(=O)(=O)c3ccc(C)cc3)C[C@]12O
IC50 [24]: 10.3 µM (inactive) | IC50 [25]: > 69.5 µM (inactive)
